# In patent US12336981B2, “Compounds and compositions for the inhibition of NAMPT” (Valo Health, Inc., priority 2010, dated 2025):
# “And” between values parts separate entries of the source, which are not always exact repeats. Equal entries are not always repeated.
# Target: T1, NAMPT (Homo sapiens, UniProt P43490)
# T1 construct: His tag; host or cells: E. coli
# Assay: Biochemical inhibition assay: NAMPT enzymatic reaction, NMN quantified by mass spectrometry
# Conditions: NAMPT enzymatic assay; read-out: Biochem IC50
# Procedure: Biochemical Inhibition Assay
# NAMPT Protein Purification
# Recombinant His-tagged NAMPT was produced in E. coli cells, purified over a Ni column, and further purified over a size-exclusion column by XTAL Biostructures.
# The NAMPT Enzymatic Reaction
# The NAMPT enzymatic reactions were carried out in Buffer A (50 mM Hepes pH 7.5, 50 mM NaCl, 5 mM MgCl2, and 1 mM THP) in 96-well V-bottom plates. The compound titrations were performed in a separate dilution plate by serially diluting the compounds in DMSO to make a 100× stock. […] The compound and enzyme mix was incubated for 15 minutes at room temperature, then 10 μL of 10× substrate and co-factors in Buffer A were added to the test well to make a final concentration of 1 μM NAM, 100 μM 5-Phospho-D-ribose 1-diphosphate (PRPP), and 2.5 mM Adenosine 5′-triphosphate (ATP). The reaction was allowed to proceed for 30 minutes at room temperature, then was quenched with the addition of 11 μL of a solution of formic acid and L-Cystathionine to make a final concentration of 1% formic acid and 10 μM L-Cystathionine. Background and signal strength was determined by addition (or non-addition) of a serial dilution of NMN to a pre-quenched enzyme and cofactor mix.
# A mass spectrometry-based assay was used to measure the NAMPT reaction product (NMN) and the internal control (L-Cystathionine). NMN and L-Cystathionine were detected using the services of Biocius Lifesciences with the RapidFire system. In short, the NMN and L-Cystathionine are bound to a graphitic carbon cartridge in 0.1% formic acid, eluted in 30% acetonitrile buffer, and injected into a Sciex 4000 mass spectrometer. The components of the sample were ionized with electrospray ionization and the positive ions were detected. […] The fragments are quantified and the analyzed by the following method.
# First the NMN signal is normalized to the L-Cystathionine signal by dividing the NMN signal by the L-Cystathionine signal for each well. The signal from the background wells are averaged and subtracted from the test plates. […] IC50s are Determined Using Excel and this Formula.
# T1 sequence (P43490 whole entry): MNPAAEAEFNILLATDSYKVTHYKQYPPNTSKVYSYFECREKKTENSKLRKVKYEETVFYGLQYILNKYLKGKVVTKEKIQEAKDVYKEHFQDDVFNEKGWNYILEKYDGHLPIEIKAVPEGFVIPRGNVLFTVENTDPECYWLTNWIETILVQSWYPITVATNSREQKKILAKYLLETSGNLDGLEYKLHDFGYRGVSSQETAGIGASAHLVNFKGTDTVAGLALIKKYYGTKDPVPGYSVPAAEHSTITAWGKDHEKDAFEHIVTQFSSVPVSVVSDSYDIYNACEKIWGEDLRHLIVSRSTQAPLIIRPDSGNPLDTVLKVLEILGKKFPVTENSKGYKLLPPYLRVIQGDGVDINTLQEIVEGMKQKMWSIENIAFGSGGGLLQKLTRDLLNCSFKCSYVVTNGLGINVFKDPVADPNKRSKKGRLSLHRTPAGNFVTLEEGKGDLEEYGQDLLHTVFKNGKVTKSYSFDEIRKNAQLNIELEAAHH
row,Molecule,IC50
1,"O=C(NCc1ccc(S(=O)(=O)c2cccc3c2Oc2ccccc2S3)cc1)c1cnc2[nH]ncc2c1 [N-{[4-(phenoxathiine-4-sulfonyl)phenyl]methyl}-1H-pyrazolo[3,4-b]pyridine-5-carboxamide]",14.8 nM
2,"O=C(NCc1ccc(S(=O)(=O)c2cncc(Cl)c2)cc1)c1ccc2nccn2c1 [N-{[4-(5-chloropyridine-3-sulfonyl)phenyl]methyl}imidazo[1,2-a]pyridine-6-carboxamide]",24.4 nM
3,"Cn1cc2ccc(S(=O)(=O)c3ccc(CNC(=O)c4cc5cnccc5[nH]4)cc3)cc2n1 [N-{[4-(2-methyl-2H-indazole-6-sulfonyl)phenyl]methyl}-1H-pyrrolo[3,2-c]pyridine-2-carboxamide]",2.5 nM
4,CC(C)Oc1ccc(S(=O)(=O)c2ccc(CNC(=O)c3cnc4nccn4c3)cc2)cc1,4.3 nM
5,"O=C(NCc1ccc(S(=O)(=O)c2ccc(F)c(OCC(F)(F)F)c2)cc1)c1cnc2[nH]ncc2c1 [N-[(4-{[4-fluoro-3-(2,2,2-trifluoroethoxy)benzene]sulfonyl}phenyl)methyl]-1H-pyrazolo[3,4-b]pyridine-5-carboxamide]",10 nM
6,CCS(=O)(=O)c1cccc(S(=O)(=O)c2ccc(CNC(=O)c3cc4ccncc4o3)cc2)c1,2.7 nM
7,O=C(NCc1ccc(S(=O)(=O)c2ccc(F)c(C(F)(F)F)c2)cc1)c1cnc2nccn2c1,8 nM
8,"O=C(NCc1ccc(S(=O)(=O)c2cncc3ccccc23)cc1)c1cnc2nccn2c1 [N-{[4-(isoquinoline-4-sulfonyl)phenyl]methyl}imidazo[1,2-a]pyrimidine-6-carboxamide]",1.6 nM
9,O=C(NC1CCCC1)c1cccc(S(=O)(=O)c2ccc(CNC(=O)c3cc4ccncc4o3)cc2)c1,6.6 nM
10,O=C(NCc1ccc(S(=O)(=O)c2ccc(Cn3ccnc3)cc2)cc1)c1cc2ccncc2o1,19 nM
11,CCCS(=O)(=O)Nc1cccc(S(=O)(=O)c2ccc(CNC(=O)c3cc4ccncc4s3)cc2)c1,1.5 nM
12,"O=C(NCc1ccc(S(=O)(=O)c2cccc3c2OCC3)cc1)c1cnc2[nH]ncc2c1 [N-{[4-(2,3-dihydro-1-benzofuran-7-sulfonyl)phenyl]methyl}-1H-pyrazolo[3,4-b]pyridine-5-carboxamide]",24.8 nM
13,"O=C(NCc1ccc(S(=O)(=O)c2cnc3ccccc3c2)cc1)c1cc2ccncc2o1 [N-{[4-(quinoline-3-sulfonyl)phenyl]methyl}furo[2,3-c]pyridine-2-carboxamide]",4.2 nM
14,Cc1nc(-c2cccc(S(=O)(=O)c3ccc(CNC(=O)c4cc5ccncc5o4)cc3)c2)no1,7.9 nM
15,"O=C(NCc1ccc(S(=O)(=O)c2cc(C(F)(F)F)ccn2)cc1)c1ccc2nccn2c1 [N-({4-[4-(trifluoromethyl)pyridine-2-sulfonyl]phenyl}methyl)imidazo[1,2-a]pyridine-6-carboxamide]",19.7 nM
16,CN(C)S(=O)(=O)c1cccc(S(=O)(=O)c2ccc(CNC(=O)c3cc4ccncc4o3)cc2)c1,2 nM
17,"COc1cccc(S(=O)(=O)c2ccc(CNC(=O)c3cc4ccncc4o3)cc2)n1 [N-{[4-(6-methoxypyridine-2-sulfonyl)phenyl]methyl}furo[2,3-c]pyridine-2-carboxamide]",2.5 nM
18,O=C(NCc1ccc(S(=O)(=O)c2cccc3c2sc2ccccc23)cc1)c1cc2cnccc2[nH]1,3.5 nM
19,O=C(NCc1ccc(S(=O)(=O)c2cccc(N3CCOCC3)c2)cc1)c1cc2ccncc2[nH]1,20.7 nM and 8.4 nM

# Same assay, conditions: NAMPT enzymatic reaction; read-out: Biochem IC50
row,Molecule,IC50
1,COc1ccc(Cl)cc1S(=O)(=O)c1ccc(CNC(=O)c2ccc3nccn3c2)cc1,19.1 nM
2,CCCOc1ccc(S(=O)(=O)c2ccc(CNC(=O)c3cc4cnccc4[nH]3)cc2)cc1Cl,74 nM
3,"O=C(NCc1ccc(S(=O)(=O)c2ccccc2OC(F)(F)F)cc1)c1ccc2nccn2c1 [N-(4-(2-(trifluoromethoxy)phenylsulfonyl)benzyl)imidazo[1,2-a]pyridine-6-carboxamide]",8 nM
4,CCCOc1ccc(Cl)cc1S(=O)(=O)c1ccc(CNC(=O)c2ccc3nccn3c2)cc1,8 nM
5,CC(C)(C)c1cccc(S(=O)(=O)c2ccc(CNC(=O)c3ccc4nccn4c3)cc2)c1,9.7 nM
6,"N-({4-[(2,4-dichloro-3-methoxybenzene)sulfonyl]phenyl}methyl)-1H-pyrazolo[3,4-b]pyridine-5-carboxamide",20 nM
7,Cc1ccc(S(=O)(=O)c2ccc(CNC(=O)c3cnc4[nH]ncc4c3)cc2)cc1Cl,6.1 nM
8,Cc1cc(F)cc(S(=O)(=O)c2ccc(CNC(=O)c3cc4ccncc4o3)cc2)c1,3.4 nM

# System: A2780 cells
# Assay: In-vitro cell proliferation assay (SRB), A2780 cells
# Assay type: cell-based
# Conditions: A2780 cells, 72 hours, SRB; read-out: A2780 IC50
# Procedure: In-Vitro Cell Proliferation Assay
# After overnight incubation at 37° C. and 5% CO2, the compound titrations were performed in a separate dilution plate by serially diluting the compounds in DMSO to make a 1000× stock. The compounds were then further diluted to 10× final concentration in culture media, whereupon 20 μL of each dilution was added to the plated cells with controls (e.g. DMSO and blank) to make a final volume of 200 μL. The final DMSO concentration in each well was 0.1%. The plates were then incubated for 72 hours at 37° C. in a 5% CO2 incubator. The number of viable cells was then assessed using sulforhodamine B (SRB) assay. Cells were fixed at 4° C. for 1 hour with the addition of 50 μL 30% trichloroacetic acid (TCA) to make a final concentration of 6% TCA. The plates were washed four times with H2O and allowed to dry for at least 1 hour, whereupon 100 μL of a 4% SRB in 1% acetic acid solution was added to each well and incubated at room temperature for at least 30 minutes. The plates were then washed three times with 1% acetic acid, dried, and treated with 100 μL of 10 mM Tris-Base solution. The plates were then read in a microplate reader at an absorbance of 570 nm. Background was generated on a separate plate with media only.
# Method for Determining % Inhibition
# First, the signals from the background plate are averaged, then the background was subtracted from the test plates.
# wherein X denotes the compound concentration 1, Y denotes the compound concentration 2, XX denotes the % inhibition at compound concentration 1 (X), and YY denotes the % inhibition at compound concentration 2 (Y).
row,Molecule,IC50
1,Cc1c(F)cccc1S(=O)(=O)c1ccc(CNC(=O)c2cc3ccncc3s2)cc1,21.4 nM

# Same assay, conditions: Homo sapiens, A2780, 72 h, A2780 cells, 72 hours, SRB assay; read-out: A2780 IC50
row,Molecule,IC50
1,"O=C(NCc1ccc(S(=O)(=O)N2CCCCC2)cc1)c1cc2cnccc2[nH]1 [N-{[4-(piperidine-1-sulfonyl)phenyl]methyl}-1H-pyrrolo[3,2-c]pyridine-2-carboxamide]",200 nM

# Same assay, conditions: Homo sapiens, A2780, 72 h, A2780 cells, 72 hours, SRB; read-out: A2780 IC50
row,Molecule,IC50
1,"O=C(NCc1ccc(S(=O)(=O)c2cccc3c2Oc2ccccc2S3)cc1)c1cnc2[nH]ncc2c1 [N-{[4-(phenoxathiine-4-sulfonyl)phenyl]methyl}-1H-pyrazolo[3,4-b]pyridine-5-carboxamide]",20.4 nM
2,"O=C(NCc1ccc(S(=O)(=O)c2cccc3cc[nH]c23)cc1)c1cnc2[nH]ncc2c1 [N-{[4-(1H-indole-7-sulfonyl)phenyl]methyl}-1H-pyrazolo[3,4-b]pyridine-5-carboxamide]",43.2 nM
3,COc1cc(-n2cccn2)ccc1S(=O)(=O)c1ccc(CNC(=O)c2cnc3nccn3c2)cc1,8.7 nM
4,COc1cc(OC)cc(S(=O)(=O)c2ccc(CNC(=O)c3ccc4nccn4c3)cc2)c1,1.5 nM
5,N#CC1(c2ccc(S(=O)(=O)c3ccc(CNC(=O)c4cnc5nccn5c4)cc3)cc2)CCCC1,4.7 nM
6,O=C(NCc1ccc(S(=O)(=O)c2ccc(C(=O)N3CCCC3)cc2)cc1)c1cnc2[nH]ncc2c1,9.3 nM
7,"O=C(NCc1ccc(S(=O)(=O)c2cc(F)cc(F)c2)cc1)c1ccc2nccn2c1 [N-({4-[(3,5-difluorobenzene)sulfonyl]phenyl}methyl)imidazo[1,2-a]pyridine-6-carboxamide]",1.5 nM
8,COCc1cccc(S(=O)(=O)c2ccc(CNC(=O)c3cnc4nccn4c3)cc2)c1,13.8 nM
9,"Cc1cccc(S(=O)(=O)c2ccc(CNC(=O)c3cnc4nccn4c3)cc2)c1F [N-({4-[(2-fluoro-3-methylbenzene)sulfonyl]phenyl}methyl)imidazo[1,2-a]pyrimidine-6-carboxamide]",21.5 nM
10,"CCOc1cccc(S(=O)(=O)c2ccc(CNC(=O)c3cc4ccncc4s3)cc2)c1 [N-({4-[(3-ethoxybenzene)sulfonyl]phenyl}methyl)thieno[2,3-c]pyridine-2-carboxamide]",2.9 nM
11,"O=C(NCc1ccc(S(=O)(=O)c2ccc(C(=O)N3CCCC3)cc2)cc1)c1cc2ccncc2o1 [N-{[4-({4-[(pyrrolidin-1-yl)carbonyl]benzene}sulfonyl)phenyl]methyl}furo[2,3-c]pyridine-2-carboxamide]",1.4 nM
12,"Cn1cc2ccc(S(=O)(=O)c3ccc(CNC(=O)c4cnc5[nH]ncc5c4)cc3)cc2n1 [N-{[4-(2-methyl-2H-indazole-6-sulfonyl)phenyl]methyl}-1H-pyrazolo[3,4-b]pyridine-5-carboxamide]",7 nM
13,O=C(NCc1ccc(S(=O)(=O)c2ccc(-c3ccccc3)cc2)cc1)c1cnc2nccn2c1,7.6 nM
14,O=C(NCc1ccc(S(=O)(=O)c2ccc(C(=O)N3CCCC3)cc2)cc1)c1cc2ccncc2s1,1.7 nM
15,O=C(NCc1ccc(S(=O)(=O)c2cccc(-c3ncccn3)c2)cc1)c1cnc2nccn2c1,13 nM
16,CC(C)COc1cccc(S(=O)(=O)c2ccc(CNC(=O)c3cc4ccncc4s3)cc2)c1,25.2 nM

# Same assay, conditions: Homo sapiens; A2780 cells, 72 hours, SRB; read-out: A2780 IC50
row,Molecule,IC50
1,O=C(NCc1ccc(S(=O)(=O)c2cccc(C(F)(F)F)c2)cc1)c1cnc2[nH]ncc2c1,10.4 nM
